# Test results from article PMC11926880, “Procognitive Potential of Neuroprotective Triazine 5-HT6 Receptor Antagonists Tested on Chronic Activity In Vivo in Rats: Computer-Aided Insight into the Role of Chalcogen-Differences on the Pharmacological Profile” (ACS Chemical Neuroscience, 2025).
# Values joined by “and” are separate entries in the source; they are usually repeats but may differ in a detail not shown here. Equal entries are not always repeated. Where two headings read alike, the source gives them in different places.
# Assays:
# 5-HT7R = conditions: read-out: radioligand binding assay Ki; cloned receptors; cited from earlier work
# [1] = tissue distribution pharmacokinetics after single i.p. administration; assay type: in vivo, rat; parameters: Cmax: unit: ng/g
# Method: Standard laboratory food (LSM-B) and filtered water as well as environment enrichment were freely available. Animals were randomly divided into treatment groups using a computer-based random order generator. All of the experiments were performed by two observers unaware of the treatment applied between 9:00 and 14:00 on separate groups of animals. Rats were injected with the investigated compounds once (in pharmacokinetic studies) and for 21 days (in behavioral studies), and afterward, behavioral tests were conducted and tissue collection was done, as required. For pharmacokinetic studies, animals were fasted prior to dosing by withholding food but not water overnight. After dosing, the food was withheld for an additional 8 h. All animals were used only once. Animals were handled every day and weighed every other day in the chronic part of the experiment. Procedures involving animals and their care were conducted in accordance with current European Community and Polish legislations on animal experimentation. Additionally, all efforts were made to minimize animals' suffering and to use only the number of animals necessary to produce reliable scientific data. The experimental protocols and procedures described were approved by the I Local Ethics Commission in Cracow (nos 309/2019 and 765/2023) and complied with the European Communities Council Directive of 24 November 24, 1986 (86/609/EEC) and were in accordance with the 1996 NIH Guide for the Care and Use of Laboratory Animals. The research program complies with the commonly accepted '3Rs' (replacement and reduction of animals, refinement of experimental conditions, and procedures to minimize the harm to animals). […] Moreover, five tissues (i.e., brain, heart, lungs, kidneys, and liver) were harvested and rinsed with cold saline. Blood was allowed to clot at room temperature for 15-20 min and then centrifuged (3000 rpm for 10 min). The obtained serum and tissues were stored at -80 °C until analysis. […] HPLC analysis with UV detection at 221 nm was performed at a 1 mL/min flow rate, and the column temperature was 38 °C. Before analysis, tissue samples were thawed, weighed (200-250 mg), and placed in 5 mL plastic tubes with four volumes (w/v) of PBS (pH 7.4) and homogenized individually using a […]-1 homogenizer (ART Prozess & Labortechnik GmbH & Co., Germany). […] The samples were alkalized with 50 μL of 4 M sodium hydroxide solution, vortex-mixed, and extracted with 1 mL of ethyl acetate/hexane (30/70, v/v) mixture on a shaker (VXR Vibrax, IKA, Germany) for 20 min. […] Then, the samples were shaken and centrifuged again. Finally, 60-90 μL of each acidic layer was injected into the HPLC system. […] The interday and intraday precision and accuracy of quality control samples evaluated in the serum and tissue homogenates were within 15%. […] The area under the serum concentration-time curve from time zero to time t (AUC0-t), where t is the time of the last measurable sample, was calculated according to the linear trapezoidal rule. The AUC from time zero to infinity (AUC0-∞) was estimated as AUC0-t + Ct/λz, where Ct was the serum concentration of the last measurable sample. The clearance (CL/F) was calculated as D/AUC0-∞, and the volume of distribution based on the terminal phase (Vz/F) was estimated as D/(λz·AUC0-∞), where F is the bioavailability of intraperitoneal administration. The MRT is calculated to be […], where AMUC0-∞ is the area under the first moment curve from the time of dosing to infinity. The peak serum concentration (Cmax) and the time to reach Cmax (Tmax) were read directly from the observations. […] Data were presented as mean ± SD.
smiles,measurement,setting,value
"CN1CCN(c2nc(N)nc(C(C)(C)Sc3ccc4ccccc4c3)n2)CC1 [WA-22, 4-(4-methylpiperazin-1-yl)-6-(2-(naphthalen-2-ylthio)propan-2-yl)-1,3,5-triazin-2-amine]",Ki,5-HT7R,607 nM
same,time after administration at which still detected in all analyzed rat organs,[1]; 1 mg/kg i.p.,240 min
same,AUC0–t,"[1]; brain, 0.3 mg/kg i.p.",1575.82 ± 182.54 ng·min/g
same,t0.5λz,"[1]; brain, 0.3 mg/kg i.p.",48.35 ± 4.46 min
same,Tmax,"[1]; brain, 0.3 mg/kg i.p., 0.3 mg/kg",11.67 ± 5.77 min
same,Cmax,"[1]; brain, 1.0 mg/kg i.p., 1 mg/kg",114.79 ± 39.16 ng/g
same,Tmax,"[1]; brain, 1.0 mg/kg i.p., 1 mg/kg",8.33 ± 5.77 min
same,t0.5λz,"[1]; brain, 1.0 mg/kg i.p., 1 mg/kg",110.31 min and 110.31 ± 24.35 min
same,AUC0–t,"[1]; heart, 0.3 mg/kg i.p.",1670.68 ± 385.10 ng·min/g
same,t0.5λz,"[1]; heart, 0.3 mg/kg i.p.",84.99 ± 19.47 min
same,AUC0–t,"[1]; heart, 1.0 mg/kg i.p.",6013.14 ± 2336.18 ng·min/g
same,t0.5λz,"[1]; heart, 1.0 mg/kg i.p.",122.04 ± 18.30 min
same,fraction cleared in rat tissues and serum at 120 min,[1]; i.p. administration,80–95%
same,AUC0–t,"[1]; kidneys, 0.3 mg/kg i.p.",3276.54 ± 1455.54 ng·min/g
same,t0.5λz,"[1]; kidneys, 0.3 mg/kg i.p.",67.32 ± 12.95 min
same,AUC0–t,"[1]; kidneys, 1.0 mg/kg i.p.",12540.07 ± 4826.76 ng·min/g
same,t0.5λz,"[1]; kidneys, 1.0 mg/kg i.p., 1 mg/kg",122 min and 121.93 ± 44.52 min
same,AUC0–t,"[1]; liver, 0.3 mg/kg i.p.",3993.81 ± 1308.63 ng·min/g
same,t0.5λz,"[1]; liver, 0.3 mg/kg i.p.",48.07 ± 6.68 min
same,AUC0–t,"[1]; liver, 1.0 mg/kg i.p.",14056.00 ± 8075.06 ng·min/g
same,t0.5λz,"[1]; liver, 1.0 mg/kg i.p., 1 mg/kg",109 min and 108.96 ± 17.84 min
same,AUC0–t,"[1]; lungs, 0.3 mg/kg i.p.",9320.95 ± 1906.43 ng·min/g
same,t0.5λz,"[1]; lungs, 0.3 mg/kg i.p.",105.43 ± 5.42 min
same,AUC0–t,"[1]; lungs, 1.0 mg/kg i.p.",33528.62 ± 5691.73 ng·min/g
same,t0.5λz,"[1]; lungs, 1.0 mg/kg i.p.",96.48 ± 13.43 min
same,Kp,"[1]; male, Wistar, rat, brain (relative to serum), ip, i.p. administration, read-out: brain-to-serum AUC ratio",~2.17
same,Cmax,"[1]; male, Wistar, rat, brain, ip, 0.3 mg/kg, brain, 0.3 mg/kg i.p., read-out: Cmax",30.7 ± 3.28 ng/g
same,Tmax,"[1]; male, Wistar, rat, brain, ip, 0.3 mg/kg, brain, 0.3 mg/kg i.p., read-out: Tmax (converted)",12 min
same,Cmax,"[1]; male, Wistar, rat, brain, ip, 1 mg/kg, brain, 1.0 mg/kg i.p., read-out: Cmax",115 ± 39.2 ng/g
same,Tmax,"[1]; male, Wistar, rat, brain, ip, 1 mg/kg, brain, 1.0 mg/kg i.p., read-out: Tmax (converted)",8 min
same,Kp,"[1]; male, Wistar, rat, brain/serum, ip, 0.3 mg/kg, brain, 0.3 mg/kg i.p., read-out: AUC ratio (tissue-to-serum AUC0–t)",1.89 ± 0.34
same,Kp,"[1]; male, Wistar, rat, brain/serum, ip, 1 mg/kg, brain, 1.0 mg/kg i.p., read-out: AUC ratio (tissue-to-serum AUC0–t)",2.46 ± 1.32
same,Kp,"[1]; male, Wistar, rat, brain/serum, ip, 1 mg/kg, brain-to-serum, 1 mg/kg i.p., read-out: AUC0–∞ (ng·h/g)/AUC0–∞ (ng·h/mL)",2.14 ± 1.18
same,Kp,"[1]; male, Wistar, rat, brain/serum, ip, 1 mg/kg, brain-to-serum, 1 mg/kg i.p., read-out: Cmax (ng/g)/Cmax (ng/mL)",1.99 ± 1.61
same,Cmax,"[1]; male, Wistar, rat, heart, ip, 0.3 mg/kg, heart, 0.3 mg/kg i.p., read-out: Cmax",37.5 ± 6.65 ng/g
same,Tmax,"[1]; male, Wistar, rat, heart, ip, 0.3 mg/kg, heart, 0.3 mg/kg i.p., read-out: Tmax (converted)",5 min
same,Cmax,"[1]; male, Wistar, rat, heart, ip, 1 mg/kg, heart, 1.0 mg/kg i.p., read-out: Cmax",172 ± 74.7 ng/g
same,Tmax,"[1]; male, Wistar, rat, heart, ip, 1 mg/kg, heart, 1.0 mg/kg i.p., read-out: Tmax (converted)",5 min
